Reference: patent US20020049313A1, “Method for introducing foreign material into higher eukaryotic cells” (priority 1994, published 2002)
Entries after “also recorded” stand apart in the source; their conditions may differ.

What was measured:
[1] = tested on: primary human fibroblasts; test: Luciferase gene expression after adenovirus-aided transferrinfection of primary human fibroblasts; assay type: cell-based; details: for improvement in gene expression: absence of E1B 19K, dexamethasone 10 μM, ibuprofen 100 μM, 5,8,11-eicosatriynoic acid 30 μM; for Induction (-fold) of luciferase expression: 3 μM dexamethasone, 24 hours after transfection
Description: Samples of biotinylated, psoralen/UV-inactivated adenovirus dl1014 (8 μl, 1×10^12 particles/ml) were diluted in 150 μl of HBS and mixed with 1 μg of StpL in […] of HBS for 30 minutes at ambient temperature. Aliquots of 6 μg of plasmid DNA (in the case of mixtures of pCMVL-DNA and another plasmid the ratio was 5:1) were diluted in 100 μl of HBS and then mixed with the adenovirus/StpL solution for 30 minutes at ambient temperature. Finally, a 100 μl aliquot of HBS, containing 5 μg of TfpL, was added to each sample, followed by 30 minutes' incubation at ambient temperature.
After surgical removal, skin biopsies were added to 4° C. DMEM containing 10% heat-inactivated FCS, 2 mM glutamine and gentamycin. The biopsies were carefully cut up in a tissue culture device using forceps and a surgical blade in a laminar air current in sterile 6 cm plastic dishes. Then 3 ml of DMEM, containing 20% FCS, 2 mM glutamine and antibiotics were added and the culture was placed in an incubator at 37° C. After 10 days the medium was replaced by DMEM containing 10% FCS. Then the medium was changed a further 2 times a week. 4 weeks after the start of cultivation the cells which had grown out of the tissue fragments were trypsinised and plated out into new culture dishes for transfection.
(§1) The luciferase activity was determined as described in WO 93/07283.
First of all, a series of experiments were carried out intended to establish whether the expression of certain adenovirus genes is capable of intensifying gene expression after transferrinfection. A defined quantity of the luciferase expression plasmid pCMVL (5 μg) was mixed with various plasmid DNA (1 μg in each), incorporated in TfpL/StpL/adenovirus transfection complexes (total volume 500 μl) and applied to primary human fibroblasts (50 μl of complex were applied to 2×10^4 cells per well in a 24-well plate, corresponding to 2.5×10^4 virus particles per cell, the measurements being carried out three times. In FIG. 4 “minus” denotes pSP65; the test DNA is specified in each case). The luciferase activity obtained was measured 48 to 72 hours after transfection. […] The E1 region contains two main gene functions, E1A and E1B. (The E1A products have the effect of separating E2F from the Rb protein and on the other hand they modulate the transcription activity of numerous cellular and adenovirus promoters. The main transcription-transactivator function is contained in the 13S gene product. The 1B gene codes for two main functions: the E1B 55K gene product binds p53 and changes its function. It is assumed that the 19K E1B gene product acts underneath p53 in order to block the apoptotic response).
In order to do this, transfection complexes containing pCMVL plus the plasmid pSP65, or the plasmids which contained the sequence for Bcl-2, E1A or E1B 19K (the quantities of reporter plasmid pCMVL and the relevant test plasmid were 5 μg and 1 μg, respectively, as in the previous Example), with virus particle numbers of 3×10^4 (FIG. 5A), 10^4 (FIG. 5B) or 3×10^3 (FIG. 5C) per cell were applied to primary fibroblasts and the luciferase activity was measured over a period of time. The transfections were carried out as described in the preceding Examples, the cells being given 6, 18 or 60 μl of transfection complex per well, containing 2×10^4 fibroblasts.
(In these experiments, the cells in a well were given 18 μl of transfection complex.) From day 10 onwards, the culture medium was replaced with fresh medium daily; the idea of this procedure was to lower the concentrations of toxins by changing the medium.

[2] = tested on: NF-KB; test: NF-KB luciferase reporter activation in A549 NF-KB cells; assay type: cell-based, human; details: 11 h, LPS 2.5 μg/ml, PMA 10^−8M
Excerpt: The plasmid pNF-KB-Luc responding to NF-KB was constructed as a derivative of the plasmid pTK3kbB described by Boehmelt et al., 1992. In order to do this, pTK3kbB was cut with XhoI and NcoI in order to remove the majority of the sequence coding for CAT, treated with Klenow enzyme and ligated with a Klenow-treated HindIII/SspI fragment of PRSVL, containing the luciferase sequence (De Wet et al., 1987). This yielded the plasmid p3K-Luc which contains a triple binding site for the transcription factor NF-KB plus the luciferase sequence, driven by a thymidine kinase (TK) TATA box.
(§2) In order to prepare the clonal cell lines, containing the reporter plasmid pNF-KB-Luc or pIL-6-Luc, the human lung cancer cell line A549 (ATCC CCL 185) was used as starting material. The plasmids were co-transfected with the neomycin-phosphotransferase-expression plasmid designated pmuatt (a pUC19 plasmid containing the TKneo-sequence; Grosveld et al., 1982) using the transfectam method (Behr et al., 1989) and selected for cells which are resistant to 400 μg/ml of G418 (Sigma). Clonal derivatives which expressed luciferase after induction by PMA were identified and expanded.
as §1
(§3) Stable clones of the lung epithelial carcinoma cell line A549 were produced, which contained pNF-KB-luc or pIL-6-luc as reporter gene construct. […]

[3] = tested on: IL-6 promoter (NF-IL-6/NF-KB); test: IL-6 promoter luciferase reporter activation in A549 IL-6 cells; assay type: cell-based, human; details: A549/NF-IL-6 luciferase; 10 h; PMA 10^−8M, virus 10^4 Particle/cell
Excerpt: The construct described by Matsusaka et al., 1993 was used, which contains the luciferase sequence driven by the IL-6 promoter.
as §2, §1, §3
In order to determine the time sequence of the NF-IL-6-and NF-KB-activation, the cells of the two cell lines which were found in the above quantities in a 24 well plate or 6 well plate were each treated with 10^4 adenovirus dl1014 virus particles per cell (which corresponded to 4×10^8 virus particles for each well of the A549 NF-KB cells or 4×10^9 virus particles for each well of the A549 IL-6 cells). […]

**Q.** What does the source list for `CCCCCCCCC#CCC#CCC#CCCCC(=O)O` [5,8,11-eicosatriynoic acid]?
**A.** improvement in gene expression [1]: only dexamethasone brings about a substantial improvement; effect on gene expression ([1]; presence of E1B 19K, dexamethasone 10 μM, 5,8,11-eicosatriynoic acid 30 μM): synergistic effect

**Q.** Which results are given for `C[C@@H]1C[C@H]2[C@@H]3CCC4=CC(=O)C=C[C@]4(C)[C@@]3(F)[C@@H](O)C[C@]2(C)[C@@]1(O)C(=O)CO` [Dexamethasone, dexamethasone]?
**A.** Induction (-fold) of luciferase expression ([1]; pCMVL/pCMV19K): 2.71 -fold; Induction (-fold) of luciferase expression ([1]; pCMVL/pSP65 (absence of pCMV19K)): 1.65 -fold

**Q.** For `CCCCCCCCCCCCCC(=O)O[C@@H]1[C@@H](C)[C@@]2(O)[C@@H](C=C(CO)C[C@]3(O)C(=O)C(C)=C[C@@H]23)[C@@H]2C(C)(C)[C@]12OC(C)=O` [PMA, Phorbolmyristylacetate], which “Increase (-fold)” value [2] is on record?
**A.** 2.0 (11 h) -fold

**Q.** And the “Increase (-fold)” value [3]?
**A.** 2.0 (10 h) -fold

**Q.** How did the “effect on gene expression (luciferase) over time” value ([1]; 10 μM dexamethasone or 2 mM Aspirin from 2 hours after transfection, with and without E1B 19K) turn out when `CC(=O)Oc1ccccc1C(=O)O` [aspirin, acetylsalicylic acid] was run?
**A.** increase in gene expression both in the presence and in the absence of E1B 19K; also recorded: less marked than that of dexamethasone

**Q.** What about the “interaction with the E1B 19K gene in increase of gene expression” value ([1]; 10 μM dexamethasone or 2 mM Aspirin, pCMV19K co-transfected) of the same compound?
**A.** synergistic effect

**Q.** Which “improvement in gene expression” value [1] does the source give for `CC(C)Cc1ccc(C(C)C(=O)O)cc1` (stereo not drawn) [ibuprofen, Ibuprofen] here?
**A.** only dexamethasone brings about a substantial improvement
